From article PMC5483439, “The Effect of Pungent and Tingling Compounds from Piper nigrum L. on Background K^+ Currents” (Frontiers in Pharmacology, 2017)
Read-outs that look alike come from different tables or passages of the source.

Legend:
[1] = molecular target: T1, hKCNK9 (Homo sapiens, UniProt Q9NPC2); experiment: Two-electrode voltage clamp on Xenopus laevis oocytes expressing hKCNK9; type: cell-based; conditions: for effect on basal activity of hKCNK9: 1 mM
T1 construct: host or cells: Xenopus laevis oocytes injected with cRNA (plasmid pCR4-TOPO)
From the text: (§1) Human KCNK3 (TASK-1, K2P3.1) cloned into the expression vector pIRES-CD8 was a gift from Dr. Fabrice Duprat (Institut National de la Santé et de la Recherche Médicale, Antipolis, France). Human KCNK18 (hTRESK, K2P18.1), cloned into the plasmid pEXO, was a gift from Dr. P. Enyedi (Semmelweis University, Budapest, Hungary). These plasmids were linearized with the restriction enzymes BamHI and XbaI, respectively, and then used as templates for in vitro transcription. Human KCNK9 (hTASK-3, K2P9.1) cloned into the expression vector pCR4-TOPO, was purchased from Imagenes (Berlin, Germany). The plasmid was linearized with the restriction enzyme SspI, to generate a linear cDNA template for in vitro transcription. mKCNK3 was isolated from mouse heart by standard procedures and inserted into pSGEM. mKCNK9 and mKCNK18 were kindly provided by Dr. D. Bayliss (University of Virginia, Charlottesville, VA, United States) and Prof. Dr. P. Enyedi (Semmelweis University, Budapest, Hungary). Both channels were subcloned into pSGEM. The pSGEM plasmids were subsequently linearized with the restriction enzyme PacI. The capped RNAs were synthesized in the presence of the capping analog m7G(5′)ppp(5′)G using the AmpliCap-T7 Message Maker kit (Epicentre, Madison, WI, United States). The cRNA was dissolved in nuclease-free water to obtain a final concentration of 100 ng/μL.
The expression in Xenopus laevis oocytes was essentially performed as previously described ([Beltrán et al., 2013]). Briefly, mature female Xenopus laevis frogs were anesthetized with 0.15% MS-222, and surgery was performed according to standard methods, where the extracted ovarian lobes were placed into Ca^2+-free Barth solution containing collagenase type II (Worthington Biochemical Corporation, Lakewood, NJ, United States) and kept for 90 min on a shaker at 40 rpm (room temperature). Healthy stage V and VI oocytes were selected for injection with cRNA coding for the proteins of interest. Thirty nanoliters of cRNA (100 ng/μL) of each channel were injected using a Microinjector Micro 4 ^TM (World Precision Instruments). After injection, the oocytes were kept in ND96 (96 mM NaCl; 2 mM KCl; 1.8 mM CaCl2; 1 mM MgCl2; 2.5 mM Sodium pyruvate; 10 mM, HEPES [4-(2-hydroxyethyl)-1-piperazineethanesulfonic acid), pH 7.4]. The measurements were performed 24 to 72 h after injection. The oocytes were placed in a 100 μL chamber that was perfused with frog Ringer’s solution (115 mM NaCl; 2.5 mM KCl; 1.8 mM CaCl2, and 10 mM HEPES, pH 7.2). The substances were dissolved in this solution before being manually applied to the oocytes using an automatic pipette (Research pro, Eppendorf, Germany). The application time was usually three ramps (approximately 10 s). […]

[2] = molecular target: T2, hKCNK3 (Homo sapiens, UniProt O14649); experiment: Two-electrode voltage clamp on Xenopus laevis oocytes expressing hKCNK3; type: cell-based; conditions: for effect on basal activity of hKCNK3: 1 mM; for % of basal activity after saturating concentrations: hKCNK3 in Xenopus oocytes
T2 construct: expressed in transfected cells; host or cells: Xenopus laevis oocytes injected with cRNA (plasmid pIRES-CD8, gift of Dr. Fabrice Duprat)
From the text: as §1
The expression in Xenopus laevis oocytes was essentially performed as previously described ([Beltrán et al., 2013]). Briefly, mature female Xenopus laevis frogs were anesthetized with 0.15% MS-222, and surgery was performed according to standard methods, where the extracted ovarian lobes were placed into Ca^2+-free Barth solution containing collagenase type II (Worthington Biochemical Corporation, Lakewood, NJ, United States) and kept for 90 min on a shaker at 40 rpm (room temperature). Healthy stage V and VI oocytes were selected for injection with cRNA coding for the proteins of interest. Thirty nanoliters of cRNA (100 ng/μL) of each channel were injected using a Microinjector Micro 4 ^TM (World Precision Instruments). After injection, the oocytes were kept in ND96 (96 mM NaCl; 2 mM KCl; 1.8 mM CaCl2; 1 mM MgCl2; 2.5 mM Sodium pyruvate; 10 mM, HEPES [4-(2-hydroxyethyl)-1-piperazineethanesulfonic acid), pH 7.4]. The measurements were performed 24 to 72 h after injection. The oocytes were placed in a 100 μL chamber that was perfused with frog Ringer’s solution (115 mM NaCl; 2.5 mM KCl; 1.8 mM CaCl2, and 10 mM HEPES, pH 7.2). The substances were dissolved in this solution before being manually applied to the oocytes using an automatic pipette (Research pro, Eppendorf, Germany). The application time was usually three ramps (approximately 10 s). For recording, a Turbo Tec-03x (npi electronic GmbH, Tamm, Germany) amplifier was used, with an acquisition rate of 1000 Hz and a low pass filter of 20 Hz. Borosilicate glass capillaries were pulled with a Kopf vertical pipette puller. The pulled glass capillaries were filled with 3 M KCl.
A ramp series protocol was used to evaluate the activity of KCNK channels as previously described ([Beltrán et al., 2013]). Briefly, voltage ramps from –100 mV to + 50 mV ([…]) followed by a constant of +50 mV (150 ms) were applied at a time interval of 2 s. […] This value was then normalized to the average obtained from three ramps prior to the application. In most cases, the currents elicited by this voltage-clamp ramp series protocol were more than ten times larger than the background currents observed in uninjected oocytes, while also presenting the described outward rectification under physiological concentrations of intracellular and extracellular K^+ ([Goldstein et al., 2001]; [Enyedi and Czirják, 2010]). Due to these characteristics, no leakage subtraction was considered necessary. Oocytes not fulfilling these characteristics were not considered for data analysis. […]

[3] = system: tongue surface; design: method as in Dawid et al., 2012; conditions: human, ref Dawid et al., 2012, cited from earlier work; for pungent threshold concentration / tingling threshold concentration: filter paper on tongue
[4] = molecular target: T3, hKCNK18 (Homo sapiens, UniProt Q7Z418); experiment: Two-electrode voltage clamp on Xenopus laevis oocytes expressing hKCNK18; type: cell-based; conditions: for effect on basal activity of hKCNK18: 1 mM
T3 construct: expressed in transfected cells; host or cells: Xenopus laevis oocytes injected with cRNA (plasmid pEXO, gift of Dr. P. Enyedi)
T3 sequence (Q7Z418 1-384): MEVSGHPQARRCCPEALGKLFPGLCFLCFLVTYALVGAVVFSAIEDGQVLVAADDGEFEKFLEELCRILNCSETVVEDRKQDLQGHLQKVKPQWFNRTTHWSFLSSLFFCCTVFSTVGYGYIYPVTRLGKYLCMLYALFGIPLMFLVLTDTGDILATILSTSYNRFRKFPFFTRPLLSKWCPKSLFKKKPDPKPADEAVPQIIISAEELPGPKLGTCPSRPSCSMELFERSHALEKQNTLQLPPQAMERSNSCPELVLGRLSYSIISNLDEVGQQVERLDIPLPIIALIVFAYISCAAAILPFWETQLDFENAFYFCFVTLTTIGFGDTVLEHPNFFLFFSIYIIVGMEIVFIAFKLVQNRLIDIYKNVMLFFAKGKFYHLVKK
From the text: as §1
The expression in Xenopus laevis oocytes was essentially performed as previously described ([Beltrán et al., 2013]). Briefly, mature female Xenopus laevis frogs were anesthetized with 0.15% MS-222, and surgery was performed according to standard methods, where the extracted ovarian lobes were placed into Ca^2+-free Barth solution containing collagenase type II (Worthington Biochemical Corporation, Lakewood, NJ, United States) and kept for 90 min on a shaker at 40 rpm (room temperature). Healthy stage V and VI oocytes were selected for injection with cRNA coding for the proteins of interest. Thirty nanoliters of cRNA (100 ng/μL) of each channel were injected using a Microinjector Micro 4 ^TM (World Precision Instruments). […]

[5] = system: background current of mouse trigeminal neurons; experiment: Whole-cell patch clamp on cultured mouse trigeminal neurons; type: cell-based; conditions: 100 μM XE-991, Na+/Ca2+-free solution
Method: Trigeminal ganglia neurons were isolated from Swiss CD-1 mice (Charles River Laboratories, Sulzfeld, Germany). All experiments involving animals were carried out in accordance with the European Union Community Council’s guidelines and approved by the competent state office of the Federal Land of Northrhine Westphalia (file number 87-51.04.2010.A180). At postnatal day 2–5, the mice were sacrificed by decapitation. The brain was removed, and both trigeminal ganglia were excised. The ganglia were washed in PBS+/+ (Invitrogen, Karlsruhe, Germany) and collected in Leibovitz Medium (L15, Invitrogen) on ice. The ganglia were transferred to Dulbecco’s modified essential medium (DMEM) containing 0.025% collagenase (type IA, Sigma–Aldrich). The minced ganglia were incubated for 45 min in a humidified atmosphere (37°C, 95% humidity, 6% CO2) before trituration. The cell suspension was centrifuged at 1000 rpm for 4 min at room temperature and the pellet was resuspended in F-12 medium (Invitrogen; 31331-D-MEM/F-12, GlutaMax^TM) supplemented with 10% fetal bovine serum (FBS^TM; Invitrogen), 200 U/mL penicillin and 200 U/mL streptomycin. The cell suspension (50 μL) was then plated on poly L-lysine (0.01%) coated glass coverslips (30 mm, Sarstedt, Nümbrecht, Germany), placed in cell culture dishes (35 mm) and kept in a humidified atmosphere (37°C, 95% humidity, 6% CO2) for 1 h. Subsequently, F-12 medium (2 mL) supplemented with FBS (10%), 200 U/mL penicillin and 200 U/mL streptomycin was added to each dish. The cells were kept in an incubator (37°C, 95% humidity, 6% CO2) until use.
The recordings were performed using the whole-cell configuration of the patch-clamp technique. The cells were maintained in an extracellular recording solution containing 140 mM NaCl, 5 mM KCl, 2 mM MgCl2, 2 mM CaCl2, 10 mM HEPES and 10 mM glucose, pH 7.4. The Ca^2+ and Na^+- free extracellular solution contained: 140 mM NMDG-Cl, 5 mM KCl, 2 mM MgCl2, 5 mM EGTA, 10 mM HEPES, pH 7.4. The patch electrodes were pulled from borosilicate glass (1.2 mm OD × 1.17 mm ID; Harvard apparatus, Edenbridge, Kent, United Kingdom) and fire polished to 2.5–4 MΩ tip resistance using a horizontal pipette puller (Zeitz Instruments, Munich, Germany) to obtain a patch of approximately 1–2 μm diameter. The pipette solution contained 140 mM KCl, 1 mM MgCl2, and 10 mM HEPES, pH 7.4. All recordings were performed at room temperature with an EPC7 amplifier (List-Medical Electronic, Darmstadt, Germany). The capacity and serial resistance were adjusted manually. The substances were applied via a custom-made manifold superfusion device. […] The data were acquired using Pulse software (HEKA, Lambrecht, Germany) and analyzed with PulseFit (HEKA, Lambrecht, Germany). Unless otherwise stated, the data are expressed as the mean ± SEM. […]

[6] = Xenopus oocytes, current at +50 mV normalized to pre-application, read-out: IC50 on hKCNK3

T1 sequence (Q9NPC2 whole entry): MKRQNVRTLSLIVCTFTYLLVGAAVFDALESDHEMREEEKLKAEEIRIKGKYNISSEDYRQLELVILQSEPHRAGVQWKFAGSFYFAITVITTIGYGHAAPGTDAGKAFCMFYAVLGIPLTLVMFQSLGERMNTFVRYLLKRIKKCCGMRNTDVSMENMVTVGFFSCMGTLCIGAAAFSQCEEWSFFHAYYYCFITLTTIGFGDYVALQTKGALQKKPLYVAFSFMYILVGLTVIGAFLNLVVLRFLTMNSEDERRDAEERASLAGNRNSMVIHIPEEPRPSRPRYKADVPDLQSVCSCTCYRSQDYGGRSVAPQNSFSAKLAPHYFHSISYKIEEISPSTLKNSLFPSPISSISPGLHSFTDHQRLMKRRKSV
T2 sequence (O14649 whole entry): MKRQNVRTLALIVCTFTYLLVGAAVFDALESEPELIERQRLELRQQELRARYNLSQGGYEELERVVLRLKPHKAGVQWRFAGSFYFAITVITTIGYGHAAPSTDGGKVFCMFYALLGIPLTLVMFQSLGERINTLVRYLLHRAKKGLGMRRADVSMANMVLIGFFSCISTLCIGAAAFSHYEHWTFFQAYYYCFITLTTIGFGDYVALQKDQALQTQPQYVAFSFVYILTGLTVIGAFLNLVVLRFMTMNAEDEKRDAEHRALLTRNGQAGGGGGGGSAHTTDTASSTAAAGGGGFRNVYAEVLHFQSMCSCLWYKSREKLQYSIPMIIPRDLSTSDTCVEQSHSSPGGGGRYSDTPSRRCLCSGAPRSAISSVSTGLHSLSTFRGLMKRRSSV

| effect on basal activity of hKCNK3 ([2]; Xenopus oocytes) | IC50 [2, 6] | % of basal activity after saturating concentrations [2] | Molecule | pungent threshold concentration [3] | other results |
| --- | --- | --- | --- | --- | --- |
| most pronounced effect | 19 ± 2.1 µM | 27 ± 3% | 1-(octadeca-2E,4E,13/12Z-trienoyl)-pyrrolidine [5b/6b] |  | effect on basal activity of hKCNK9 [1]: inhibited; IC50 ([1]; N = 3–6): 236 ± 56 µM |
| decrease in their basal activity | 180 ± 39 µM | 55 ± 5% | O=C(/C=C/C=C/c1ccc2c(c1)OCO2)N1CCCC1 [1b, piperyline] | 5.1 nmol/cm^2 | effect on basal activity of hKCNK9 [1]: decrease in their basal activity; threshold for oral pungency [3]: 0.005 μmol/cm^2; effect on basal activity of hKCNK18 [4]: decrease in their basal activity; IC50 ([4]; N = 3–6): 252 ± 55 µM |
| decrease in their basal activity | 113 ± 79.5 µM | 50 ± 14% | CC(C)CNC(=O)/C=C/C=C/c1ccc2c(c1)OCO2 [1c, piperlonguminine] | 10.4 nmol/cm^2 | effect on basal activity of hKCNK9 [1]: decrease in their basal activity; threshold for oral pungency [3]: 0.01 μmol/cm^2; effect on basal activity of hKCNK18 [4]: decrease in their basal activity |
|  |  |  | O=C(/C=C/C=C/C=C/c1ccc2c(c1)OCO2)N1CCCCC1 [2a, piperettine] | 5.2 nmol/cm^2 |  |
|  | 44 ± 6.7 µM | 39 ± 1% | O=C(/C=C/C=C/CC/C=C/c1ccc2c(c1)OCO2)N1CCCCC1 [3a, dehydropipernonaline] | 152.1 nmol/cm^2 |  |
| most pronounced effect | 49.6 ± 8.5 µM | 35 ± 3% | O=C(/C=C/C=C/CC/C=C/c1ccc2c(c1)OCO2)N1CCCC1 [3b, 1-[1-oxo-9(3,4-methylenedioxyphenyl)-2E,4E,8E-nonatrienyl]-pyrrolidine] |  |  |
| most pronounced effect | 32 ± 11 µM | 51 ± 5% | O=C(/C=C/C=C/CCCCCC/C=C/c1ccc2c(c1)OCO2)N1CCCC1 [4b, brachyamide A] |  |  |
|  |  |  | CCCC/C=C\CCCCCCC/C=C/C=C/C(=O)NCC(C)C [5c, (2E,4E,13Z)-N-isobutyl-octadeca-2,4,13-trienamide] | 540.5 nmol/cm^2 | tingling threshold concentration [3]: 2162.1 nmol/cm^2 |
|  |  |  | CCCCC/C=C\CCCCCC/C=C/C=C/C(=O)NCC(C)C [6c, (2E,4E,12Z)-N-isobutyl-octadeca-2,4,12-trienamide] | 540.5 nmol/cm^2 | tingling threshold concentration [3]: 2162.1 nmol/cm^2 |
|  |  |  | CCCCCCCCCCCCC/C=C/C=C/C(=O)NCC(C)C [7c, (2E,4E)-N-isobutyl-octadeca-2,4-dienamide] | 763.0 nmol/cm^2 |  |
|  |  |  | CCCC/C=C\CCCCCCCCC/C=C/C=C/C(=O)NCC(C)C [8c, (2E,4E,15Z)-N-isobutyl-eicosa-2,4,15-trienamide] | 741.2 nmol/cm^2 | tingling threshold concentration [3]: 1482.3 nmol/cm^2 |
|  |  |  | CCCCC/C=C\CCCCCCCC/C=C/C=C/C(=O)NCC(C)C [9c, (2E,4E,14Z)-N-isobutyl-eicosa-2,4,14-trienamide] | 741.2 nmol/cm^2 | tingling threshold concentration [3]: 1482.3 nmol/cm^2 |
|  |  |  | O=C1c2ccccc2C(Cc2ccncc2)(Cc2ccncc2)c2ccccc21 [XE-991, reference compound] |  | effect of pre-incubation on background current [5]: marked decrease |
|  | 70 ± 32.8 µM | 57 ± 7% | (2E,4E,13/12Z)-N-isobutyl-octadeca-2,4,12/13-trienamide [5c/6c] |  |  |

| Molecule | effect on basal activity of hKCNK3 ([2]; Xenopus oocytes) | IC50 [2, 6] | % of basal activity after saturating concentrations [2] | pungent threshold concentration [3] | other results |
| --- | --- | --- | --- | --- | --- |
| CC(C)CNC(=O)/C=C/C=C/CCCCCC/C=C/c1ccc2c(c1)OCO2 [4c, guineensine] |  |  | 48 ± 2.8% | 810.1 nmol/cm^2 | IC50 [2]: 90.9 ± 12.7 µM |
